These results are taken from patent publication US5631275A, “Substituted benzenesulfonylureas and -thioureas, preparation processes and possible uses of pharmaceutical preparations based on these compounds” (Hoechst Aktiengesellschaft, priority 1993, dated 1997).

In experiment [1] the test system is papillary muscle of the guineapig. As to the kind of experiment: Action potential duration on the papillary muscle of the guineapig. Format: cell-based. The following applies: test substance 2.2×10^-5 mol per liter, 30 minutes after the addition, control without test substance <40; for APD95 -HOE 234: action potential shortened by 1 μM rilmakalim (Hoe 234); for APD95 -DEO: action potential shortened by 2-deoxyglucose (DEO). The source says: ATP deficiency states such as are observed during ischemia in the cardiac muscle cell lead to a shortening of the duration of action potential. They are one of the causes of so-called reentry arrhythmias, which can cause sudden cardiac death. Opening of ATP-sensitive K channels by the reduction in ATP is a cause of this.
A standard microelectrode technique is used for measurement of the action potential. For this, guineapigs of both sexes are sacrificed by a blow to the head, the hearts are removed and the papillary muscles are separated out and suspended in an organ bath. The organ bath is flushed with Ringer solution (0.9% NaCl, 0.048% KCl, 0.024% CaCl2, 0.02% NaHCO3 and 0.1% glucose) and gassed with a mixture of 95% oxygen and 5% carbon dioxide at a temperature of 36° C. The muscle is stimulated via an electrode with rectangular pulses of 1 V and 1 ms duration and a frequency of 2 Hz. The action potential is conducted and recorded through a glass microelectrode, which is punctured intracellularly and filled with […] solution. The substances to be tested were added to the Ringer solution in a concentration of 2.2×10^-5 mol per liter. The action potential is shown in amplified form on an oscilloscope using a Hugo Sachs amplifier. The duration of the action potential is determined at a repolarization degree of 95% (APD95). Shortenings in action potential are caused either by addition of a 1 μM strength solution of the potassium channel opener rilmakalim (Hoe 234) [W. Linz, E. Klaus, U. Albus, R. H. A. Becker, D. Mania, H. C. Englert, B. A. Scholkens Arzneimittelforschung/Drug Research, Volume 42 (II), 1992, pages 1180-1185] or by addition of 2-deoxyglucose (DEO). ATP deficiency states are caused in experimental physiology by 2-deoxyglucose by blockade of glucose metabolism. The action potential-shortening effect of these substances was prevented or reduced by the simultaneous dose of the test substances. The test substances were added to the bath solution as stock solutions in propanediol. The values stated relate to measurements 30 minutes after the addition. The APD95 in the presence of DEO or HOE 234 and in the absence of the test substance serves as a control.

The subject of the next experiment is RINm5F cells. Briefly: Membrane potential on isolated β cells (RINm5F cells, whole cell patch clamp). The format is cell-based. The following applies: 10^-5 mol per liter, diazoxide (100 μmol) in bath, 34°±1° C., n = 6. On the procedure:
The action mechanism of hypoglycemic sulfonylureas is clarified in rough outlines. The β cells of the pancreas are the target organ, where increased secretion of the hypoglycemic hormone insulin occurs. The release of insulin is controlled by the cell membrane potential. Glihenclamide causes depolarization of the cell membrane, which promotes insulin release via an increased in-flow of calcium ions. The extent of this depolarization of the cell membrane ΔU was determined on RINm5F cells, a pancreas tumor cell line, for some of the compounds according to the invention. The action strength of a compound in this model predicts the extent of the hypoglycemic potential of this compound.
RINm5F cells were cultured at 37° C. in RPMI 1640 culture medium (flow), to which 11 mmol of glucose, 10% (volume/volume) of fetal calf serum, 2 mmol of glutamine and 50 μg/ml of gentamycin were added. For the studies, the cells were isolated by incubation (about 3 minutes) in a Ca^2+ -free medium containing 0.25% of trypsin and stored on ice.
Isolated RINm5F cells were introduced into a Plexiglas chamber on an inverse microscope fitted with a differential interference contrast lens. […] The cell potential was recorded in this whole cell configuration with the aid of a patch clamp amplifier (L/M EPC 7) and was measured by applying a potential ramp to the whole cell current. […]
(The patch-clamp technique gives a direct electrical read-out from membranes.)

With `CCC1=C(C)CN(C(=O)NCCc2ccc(OC)c(S(=O)(=O)NC(=S)NC)c2)C1=O` [Example 1, 1-{2-Methoxy-5-[2-(3-ethyl-4-methyl-2-oxo-3-pyrrolinyl-1-carboxamido)-ethyl]-phenylsulfonyl-}3-methylthiourea], in experiment [1], the “APD95 -HOE 234” value was found to be 119 ± 16 ms and the “APD95 -DEO” value is reported as 60 ± 22 ms. Moreover, the “ΔU (depolarization of the cell membrane)” value in the experiment on RINm5F cells is 2 mV.

For the compound `CCC1=C(C)CN(C(=O)NCCc2ccc(OC)c(S(=O)(=O)NC(=O)NC)c2)C1=O` [Example 2, 1-{2-Methoxy-5-[2-(3-ethyl-4-methyl-2-oxo-3-pyrrolinyl-1-carboxamido)-ethyl]-phenylsulfonyl-}3-methylurea], in experiment [1], the “APD95 -HOE 234” value is 125 ms and the “APD95 -DEO” value worked out at 110 ms. Further, the “ΔU (depolarization of the cell membrane)” value in the experiment with RINm5F cells was determined as 12 mV.
